Literature values, collected in patent US20190000850A1, “COMBINATION CANCER THERAPY” (The Regents of the University of California, priority 2015, published 2019).

Columns and labels:
PKC = conditions: cited from earlier work
cdc2 = cdc2 (Homo sapiens, UniProt P06493); conditions: cited from earlier work
Chk1 = molecular target: T1, Chk1 (Homo sapiens, UniProt O14757); conditions: read-out: IC50 against primary target (Chk1); cited from earlier work
T1 sequence (O14757 1-476): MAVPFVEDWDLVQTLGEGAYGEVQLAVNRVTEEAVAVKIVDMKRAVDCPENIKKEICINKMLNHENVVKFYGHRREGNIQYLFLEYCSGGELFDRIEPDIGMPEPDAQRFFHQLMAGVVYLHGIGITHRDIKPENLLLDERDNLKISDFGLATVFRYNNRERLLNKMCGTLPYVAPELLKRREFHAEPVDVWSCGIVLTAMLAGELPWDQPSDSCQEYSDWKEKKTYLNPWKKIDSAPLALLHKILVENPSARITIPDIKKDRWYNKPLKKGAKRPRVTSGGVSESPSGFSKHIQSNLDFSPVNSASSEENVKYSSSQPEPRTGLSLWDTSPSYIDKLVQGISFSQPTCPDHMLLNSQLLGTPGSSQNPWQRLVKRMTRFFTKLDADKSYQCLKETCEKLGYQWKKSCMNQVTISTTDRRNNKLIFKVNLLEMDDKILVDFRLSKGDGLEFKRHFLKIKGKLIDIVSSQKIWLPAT

Chk2 = Chk2 (Homo sapiens, UniProt O96017); conditions: read-out: IC50 against Chk2; cited from earlier work
Sequence of Chk2 (O96017 whole entry, species assumed): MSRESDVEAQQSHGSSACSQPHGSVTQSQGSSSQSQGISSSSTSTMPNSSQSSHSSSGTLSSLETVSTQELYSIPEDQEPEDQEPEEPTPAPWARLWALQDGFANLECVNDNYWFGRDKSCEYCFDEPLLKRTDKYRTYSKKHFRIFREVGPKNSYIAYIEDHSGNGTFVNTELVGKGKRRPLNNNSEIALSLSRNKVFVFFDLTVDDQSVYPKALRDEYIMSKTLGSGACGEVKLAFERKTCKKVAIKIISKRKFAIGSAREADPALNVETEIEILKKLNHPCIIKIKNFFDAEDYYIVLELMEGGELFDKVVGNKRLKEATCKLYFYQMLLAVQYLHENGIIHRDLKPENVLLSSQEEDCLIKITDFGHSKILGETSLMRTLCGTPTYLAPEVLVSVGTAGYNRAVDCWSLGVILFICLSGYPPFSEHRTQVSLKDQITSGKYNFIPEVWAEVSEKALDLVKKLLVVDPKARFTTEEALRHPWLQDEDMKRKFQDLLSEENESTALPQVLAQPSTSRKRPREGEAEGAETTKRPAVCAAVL

Sequence of cdc2 (P06493 whole entry, species assumed): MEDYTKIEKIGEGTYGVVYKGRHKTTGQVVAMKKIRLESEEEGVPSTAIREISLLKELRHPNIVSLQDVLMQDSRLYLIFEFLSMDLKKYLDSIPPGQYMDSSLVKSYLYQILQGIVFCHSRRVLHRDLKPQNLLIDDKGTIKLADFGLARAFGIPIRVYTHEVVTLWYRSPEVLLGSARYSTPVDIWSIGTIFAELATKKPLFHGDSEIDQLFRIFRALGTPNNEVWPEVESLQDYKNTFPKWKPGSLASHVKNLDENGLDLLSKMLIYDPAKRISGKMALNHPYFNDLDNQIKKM
Sequence of cdc2 (P14635 whole entry partner, species assumed): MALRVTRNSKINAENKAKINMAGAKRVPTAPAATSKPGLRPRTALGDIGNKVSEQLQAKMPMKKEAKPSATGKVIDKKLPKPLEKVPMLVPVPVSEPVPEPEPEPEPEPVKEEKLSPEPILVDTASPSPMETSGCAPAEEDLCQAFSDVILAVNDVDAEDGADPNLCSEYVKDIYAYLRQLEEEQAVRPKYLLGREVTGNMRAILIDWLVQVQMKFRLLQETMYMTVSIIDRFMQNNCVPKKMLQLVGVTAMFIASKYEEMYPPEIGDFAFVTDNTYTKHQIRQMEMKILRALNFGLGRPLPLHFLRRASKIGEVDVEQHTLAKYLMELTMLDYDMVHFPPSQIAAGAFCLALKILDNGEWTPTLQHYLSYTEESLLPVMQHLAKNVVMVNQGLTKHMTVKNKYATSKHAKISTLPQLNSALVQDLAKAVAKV

Row | SMILES | IC50 (PKC) | IC50 (cdc2) | IC50 (Chk1) | IC50 (Chk2)
1 | O=C1NC(=O)c2c1c1c3ccccc3n3c1c1c2c2ccccc2n1C1CCC3O1 [SB-218078] | 1000 nM | 250 nM | 15 nM | 
2 | CN(C)CC(C)(C)COc1ccc2[nH]c(-c3cc(NC(=O)c4cnn(Cc5ccccc5)c4)c[nH]c3=O)cc2c1 [V158411] |  |  | 3.5 nM | 2.5 nM
